Measurements taken from patent US8785503B2, “Biphenyl compound or pharmaceutically acceptable salt thereof, method for preparing novel biphenyl compound or pharmaceutically acceptable salt thereof, and pharmaceutical composition containing same as active ingredient for preventing or treating diabetes complications” (Korea Institute of Oriental Medicine, priority 2010, dated 2014).

Experiments:
AGE formation = assay: Inhibitory effect on AGE formation (BSA with fructose and glucose, fluorescence Ex 350 nm / Em 450 nm); type: biochemical, bovine; conditions: for Inhibitory effect / IC50: 7 days
Description: To determine the inhibitory effect of the compound of Chemical Formula 1 according to the present invention on formation of AGE, which are an indicator of diabetic complications and indicator of treatment efficiency assessment, the following experiment was carried out.
Bovine serum albumin (BSA) was used as a protein and the degree of binding to fructose and glucose was used as an indicator. Aminoguanidine, which is known to have very excellent inhibitory effect on AGE, was used as a positive control.
Bovine serum albumin (hereinafter, referred to as BSA; Sigma, U.S.A.) was used as a protein source. BSA was added to 50 mM phosphate buffer (pH 7.4) to be a concentration of 10 mg/mL. A mixed solution of 0.2 M fructose and 0.2 M glucose was used as a sugar source. The mixed solution of fructose and glucose was added to the prepared BSA solution. 2.5, 5 and 10 μg/mL of the compound of Chemical Formula 1 obtained from Example 1 were prepared (All compounds were dissolved in DMSO and 15% tween 80 was added thereto. Total amount of DMSO was 0.2%). The compound was added to the mixed solution of BSA and sugars and the mixture was cultured at 37° C. for 7 days.
At this time, 0.02% sodium azide and anticomycotics were added as an antibacterial agent and antifungal agents. A control was the cultured mixture of BSA and sugars. Blanks for the control and experimental group were those that were prepared but non-cultured. Aminoguanidine was used for a positive control, the indicator for comparing the effectiveness. All cultures were prepared in quadruplicate to avoid error as much as possible.
After 7 days, the amount of AGE produced from each culture was analyzed and the result was shown. AGE has fluorescence, brown color, and a physicochemical property capable of cross-linking and has ligands which cell membrane receptors can recognize. The amount of AGE having those characteristics was measured by a microplate reader (Excitation: 350 nm, Emission: 450 nm) to analyze the inhibition degree of formation (Vinson, J. A. et al., J. Nutr. Biochem., 7: 659-663, 1996), and the inhibition rate of formation was calculated using the following Equation 1.
Aminoguanidine was used for the positive control. Aminoguanidine was dissolved in distilled water and 37, 55.6. and 74 μg/mL of aminoguanidine were cultured for 7 days as described above. After 7 days, the amount of AGE produced from culture was measured by a microplate reader (Excitation: 350 nm, Emission: 450 nm).

[1] = tested on: diabetic retinopathy-induced retina; assay: Diabetic retinopathy-induced (intravitreal BSA-AGE) rat model: FITC-dextran retinal vessels, retina Western blot; type: in vivo, Sprague Dawley (SD) white rats
Description: To determine the therapeutic effect of the compound of the present invention on retina, to which diabetic retinopathy, one example of diabetic complications, was induced, the following experiment was carried out. Sprague Dawley (SD) white rats (6 weeks) were obtained from Daehan Biolink Co. and acclimated for 7 days to the animal room. SD rats were divided into normal group, diabetic group, experimental group, and control group. The animal room was maintained under the following conditions: temperature 23° C.; humidity 40-60%; and 12 h light-dark cycle. Feeds for experimental animals and drinking water were provided without limitation. All experiments were carried out in accordance with Standard Operation Procedures (SOP) by Institutional Animal Care and Use Committee (IACUC). SD rats were anesthetized by an intraperitoneal injection of 5 mg/mL of Zoletil and 5 mg/mL of Rompun. 20 mg/mL of BSA-AGE alone for normal group and diabetic group and both 20 mg/mL of BSA-AGE and a drug for experimental group and control group were injected via Hamilton syringes and needles to eyes. At this time, the needle was introduced into the sclera, 3 mm away from the corneal limbus, and after confirming that the end of the needle was located in the vitreous cavity, administration was carried out. After 24 hours, eyes were removed. The compound of Chemical Formula 1 obtained from Example 1 was used for the drug. A mixture of the same amount of Zoletil and Rompun was intraperitoneally injected to anesthetize animals. Hearts were obtained by opening abdominal cavity and thoracic cavity. 1 mL of fluorescent isothiocyanate dextran (FITC-dextran, Sigma, St. Louis, Mo., USA) which was prepared by dissolving […] of FITC-dextran in 1 mL of sterile physiological saline was injected into the left ventricle. After 10 minutes, eyes were removed and separated from eyecups. Left eyes were incised in four directions and placed onto a slide glass. After mounting, left eyes were observed by a fluorescent microscope. For right eyes, only retina was separated from the eye and rapidly frozen in liquid nitrogen and stored at −70° C. To prepare BSA-AGE, 30 mM glucose (Sigma, St. Louis, Mo., USA) and 20 mg/mL of BSA (Roche, Germany) were added to sodium phosphate buffer (100 mM, pH 7.4) and cultured at 37° C. for 50 days. After 50 days, BSA-AGE was injected into PD-10 column and the remaining glucose was removed by dialysis and only pure BSA-AGE was obtained. Purified BSA-AGE was aliquoted and stored at −70° C. to use. Retina stored at −70° C. was homogenized with homogenization buffer (pH 7.6). Protein quantification was carried out by Lowry's principle and SDS-PAGE electrophoresis was carried out for each […]. Migrated proteins in a gel were immobilized onto a nitrocellulose membrane and transferred to the membrane at 100 V, 250 mA for 1.5 hours. Antibodies to be quantified were immunoabsorbed to the adsorbed proteins and color was developed using an enhanced-chemiluminescence (ECL) solution. Protein expression was determined by measuring the density with Scion image analysis program.

retinal angiogenesis = assay: Oxygen induced retinopathy (OIR) mouse model: FITC-dextran, isolectin-B4 staining, retina Western blot; type: in vivo, mice (C58BL/6)
Description: To determine the inhibitory effect of the compound of Chemical Formula 1 of the present invention on retinal angiogenesis, the following experiment was carried out. Experimental animals were mice born after crossbreeding 7-8-week-old C58BL/6. On 7th day after birth, mice (P7) were placed into an oxygen chamber and 75% of the oxygen concentration was maintained in the chamber for five days (P7-P11). 12-hour cyclic illumination was maintained in the animal room. Temperature was maintained at 24° C. Animals were allowed to access freely to feeds and drinking water. At an ambient atmosphere, the drug was intraperitoneally injected each day for five days (P12-P16). On 17th day after birth, 30 mg/kg of Zoletil (Zoletil 50, Virbac) and 10 mg/kg of Rompun (Bayer Korea) were mixed at a ratio of 3:2 and 10-fold diluted in physiological saline and 50 μL was intraperitoneally injected to anesthetize animals. After laparotomy, 100 μL of 50 mg/mL of FITC-dextran (Sigma, St. Louis, Mo., USA) dissolved in PBS was injected to a heart. When the heart stopped, eyes were removed. Retina was separated from one eye and stored at −70° C. The other eye was fixed using 4% paraformaldehyde for 10 min. After separation of retina, thin fixed retina slide was prepared and observed using a fluorescence microscope (BX51, Olympus, Japan). Retina was fixed in 4% paraformaldehyde for 3 hours, and washed with PBS, and then agitated in PBS containing triton X-100 and 1% bovine serum albumin for 3 hours. Retina was washed again and 1 mg/mL of isolectin-B4 (L2140, Sigma) was diluted in PBS to 1:50 and retina was agitated with isolectin-B4 at 4° C. for overnight. After washing the retina with PBS containing 0.05% Tween 20 for 2 hours, streptavidin-TRITC was diluted to 1:500 and allowed to react with retina at 37° C. for 4 hours. Then, retina was washed with PBS for 30 min and observed using a fluorescence microscope (BX51, Olympus, Japan). Retina stored at −70° C. was homogenized with homogenization buffer (pH 7.6). Protein quantification was carried out by Lowry's principle and SDS-PAGE electrophoresis was carried out for each 30 μg. Migrated proteins in a gel were immobilized onto a nitrocellulose membrane and transferred to the membrane at 100 V, 250 mA for 1.5 hours. Antibodies to be quantified were immunoabsorbed to the adsorbed proteins and color was developed using an enhanced-chemiluminescence (ECL) solution. Protein expression was determined by measuring the density with Scion image analysis program.

[2] = across doses, vs. diabetic group
[3] = 100 mg/kg, intraperitoneal P12-P16
[4] = across doses, intraperitoneal P12-P16

Structure (SMILES): COc1cc(O)cc(-c2ccc(O)c(O)c2)c1 [Compound of Chemical Formula 1]
- Inhibitory effect (AGE formation; 2.5 μg/mL): 4.25 ± 5.38%
- Inhibitory effect (AGE formation; 5 μg/mL): 17.16 ± 5.86%
- Inhibitory effect (AGE formation; 10 μg/mL): 54.17 ± 6.02%
- IC50 (AGE formation): 41 ± 3.78 µM
- inhibitory effect on AGE formation relative to aminoguanidine (AGE formation; ratio of IC50 values, greater than control): 26 times
- Changes in occludin (retina, Western blot) ([1]; 100 μM, p<0.05 vs. AGE-BSA): significant increase
- Changes in the angiogenic growth factor (retina, Western blot) ([1]; 100 μM, p<0.05 vs. AGE-BSA): significant decrease
- Changes in occludin (retina, Western blot) ([1]; 150 μM, p<0.05 vs. AGE-BSA): significant increase
- Changes in the angiogenic growth factor (retina, Western blot) ([1]; 150 μM, p<0.05 vs. AGE-BSA): significant decrease
- Changes in occludin (retina, Western blot) [1, 2]: dose-dependent increase
- Changes in the angiogenic growth factor (retina, Western blot) [1, 2]: dose-dependent decrease
- angiogenesis (isolectin-B4 staining) (retinal angiogenesis; [3]): significantly inhibited
- avascular area (FITC-dextran) (retinal angiogenesis; [3]): significantly reduced
- increase in length by vascular tortuosity (retinal angiogenesis; [3]): reduced
- Changes in the angiogenic growth factor (retina, Western blot) (retinal angiogenesis; 100 mg/kg, p<0.05 vs. OIR): significant decrease
- neovascular tufts (isolectin-B4 staining) (retinal angiogenesis; [4]): ameliorated in a dose-dependent manner
- vascular tortuosity (FITC-dextran) (retinal angiogenesis; [4]): ameliorated in a dose-dependent manner
- Changes in the angiogenic growth factor (retina, Western blot) (retinal angiogenesis; across doses, vs. OIR group): dose-dependent decrease

Structure (SMILES): N=C(N)NN [Aminoguanidine, reference compound]
- Inhibitory effect (AGE formation; 37 μg/mL): 44.53 ± 2.33%
- Inhibitory effect (AGE formation; 55.5 μg/mL): 49.97 ± 0.59%
- Inhibitory effect (AGE formation; 74 μg/mL): 56.37 ± 0.67%
- IC50 (AGE formation): 1060 ± 57.2 µM
